The values below come from patent US5677342A, “Phenoxy acetic acids as aldose reductase inhibitors and antihyperglycemic agents” (American Home Products Corporation, priority 1996, dated 1997).

The test system of assay [1] is ob/ob mice. The assay can be described thus: Determination of Blood Glucose Lowering Effect in ob/ob mice. The settings on record: 100 mg/kg, p.o. Type of assay: in vivo, ob/ob mice (C57B1/6J). Here is the method: 3. Determination of Blood Glucose Lowering Effect in ob/ob mice
Male or female ob/ob mice (C57B1/6J), ages 2 to 5 months (10 to 65 g), of a similar age are randomized according to plasma glucose into 4 groups of 10 mice. The mice are housed 5 per cage and are maintained on normal rodent chow with water ad libitum. The mice receive test compound daily. The test compound is suspended in 0.5 mL of 0.5% methyl cellulose and is administered by gavage (dissolved in drinking water) or admixed in the diet. The dose of compound given ranges from 2.5 to 200 mg/kg/day. Body weight of fed animals is measured at the beginning of each week and doses for the entire week are calculated using this weight and are expressed in terms of the active moiety of the compound. Control mice receive vehicle only.
On the morning of Days 4, 7 or 14 two drops of blood (approximately 50 μl) are collected into sodium fluoride containing tubes either from the tail vein or after decapitation. […] The plasma is isolated by centrifugation and the concentration of glucose is measured enzymatically on an Abbott V. P. Analyzer and the plasma concentration of insulin is determined by radioimmunoassay (Heding, 1972). For each mouse, the percentage change in plasma glucose on Day 4, 7 or 14 is calculated relative to the mean plasma glucose of the vehicle treated mice. […]

For assay [2], the target named is T1, bovine lens aldose reductase (Bos taurus, UniProt P16116).
T1 construct: preparation of the enzyme from bovine lens; from tissue; host or cells: bovine lens
The assay is described as follows: In vitro Inhibition of Aldose Reductase in the Bovine Lens. The assay is classed as biochemical. The settings on record: DL-glyceraldehyde as substrate; for inhibition at 0.04 µM: dose 4 × 10^-8 M; for inhibition at 0.1 µM: dose 10^-7 M. The protocol: I. In vitro Inhibition of Aldose Reductase in the Bovine Lens
The aldose reductase inhibiting effects of the compounds of formula I were tested by employing an in vitro testing procedure similar to that described by S. Hayman and J. H. Kinoshita, J. Biol. Chem., 240, 877 (1965) wherein the abilitty of the invention compounds to inhibit bovine lens aldose reductase with DL-glyceraldehyde as the substrate was determined. In the present case the procedure of Hayman and Kinoshita was modified in that the final chromatography step was omitted in the preparation of the enzyme from bovine lens.

For assay [3], the system named is diabetic db/db mice. The assay can be described thus: Determination of Blood Glucose Lowering in Diabetic db/db Mice. The assay is classed as in vivo, male diabetic db/db (C57BL/KsJ) mice. The conditions noted are these: p.o.; for plasma glucose lowering compared with ciglitazone / % Change glucose: 100 mg/kg; for plasma glucose lowering compared with ciglitazone: in words; for % Change glucose: plasma glucose Day 4 (mean of 2 and 4 hr samples) vs Day 1 baseline. Here is the method:
2. Determination of Blood Glucose Lowering in Diabetic db/db Mice. On the morning of Day 1, 35 mice [male diabetic db/db (C57BL/KsJ) mice (Jackson Laboratories), 2-7 months of age and 50-70 g] were fasted for 4 hours, weighed and a baseline blood sample (15-30 μl) was collected from the tail-tip of each mouse without anesthesia, and placed directly into a fluoride-containing tube, mixed and maintained on ice. Food was then returned to the mice. The plasma was separated and levels of glucose in plasma determined by the Abbott VP Analyzer. Because of the variable plasma glucose levels of the db/db mice, 5 mice having the most extreme (i.e., highest or lowest) plasma glucose levels were excluded and the remaining 30 mice were randomly assigned into 7 groups of equivalent mean plasma glucose levels (N=6 for vehicle and N=4 for each drug group). On the afternoon of Days 1, 2 and 3, the vehicle, control or test drugs were administered (p.o.) to the ad libitum fed mice. On the morning of Day 4, the mice were weighed and food removed, but water was available ad libitum. Three hours later, a blood sample was collected and then the mice were given the fourth administration of drug or vehicle. Blood samples were collected again from the unanesthetized mice at 2 and 4 hours after drug administration. The plasma was separated and levels of glucose in plasma was determined by the Abbott VP Analyzer. For each mouse, the percent change of its plasma glucose level on Day 4 (mean of the 2 and 4 hr samples) from respective level before drug administration (Day 1 baseline sample) is determined as follows: [formula] Analysis of variance followed by Dunnett's multiple comparison (one-sided) will be used to estimate the 'degree of statistical significance of the difference between the vehicle control group and the individual drug-treated groups. A drug will be considered active, at the specific dosage administered, if the difference of the plasma glucose level has a p<0.05.

The term inhibition denotes the percentage by which the read-out fell short of the control. A high value points to strong suppression. For `Cc1c(Cl)c(OCC(=O)O)c(Cc2ccc3c(Cl)cccc3c2)c(O)c1C=O` [Example 1, [2-chloro-6-(5-chloro-naphthalen-2-ylmethyl)-4-formyl-5-hydroxy-3-methyl-phenoxy]-acetic acid], in assay [1] (plasma glucose on Day 4, 7 or 14 relative to vehicle mean), the “% Change glucose” value was -24%. The “% Change insulin” value in assay [1] (plasma insulin by radioimmunoassay, Day 4, 7 or 14) is listed as -38%. For the same compound, the inhibition at 0.04 µM in assay [2] was found to be 49%. For the same compound, in assay [3], the “plasma glucose lowering compared with ciglitazone” value was “comparable with the results for ciglitazone” and the “% Change glucose” value is -19%.
`O=Cc1ccc(OCC(=O)O)c(Cc2ccc3ccccc3c2)c1O` [Example 2, (4-formyl-3-hydroxy-2-naphthalen-2-ylmethyl-phenoxy)-acetic acid] had an inhibition at 0.1 µM in assay [2] of 34%. Besides, in assay [3], the “plasma glucose lowering compared with ciglitazone” value is “comparable with the results for ciglitazone” and the “% Change glucose” value is recorded as -23%.
Turning to `O=Cc1ccc(OCC(=O)O)c(Cc2cccc3ccccc23)c1O` [Example 3, (4-formyl-3-hydroxy-2-naphthalen-1-ylmethyl-phenoxy)-acetic acid], the inhibition at 1 µM in assay [2] (dose 10^-6 M) was 53%.
`O=Cc1ccc(OCC(=O)O)c(Cc2ccc3c(Cl)cccc3c2)c1O` [Example 4, [2-(5-chloro-naphthalen-2-ylmethyl)-4-formyl-3-hydroxy-phenoxy]-acetic acid] showed an inhibition at 0.04 µM in assay [2] of 78%.
The same measure, in the same setting: next, `O=Cc1ccc(OCC(=O)O)c(Cc2ccc3c(Br)cccc3c2)c1O` [Example 5, [2-(5-bromo-naphthalen-2-ylmethyl)-4-formyl-3-hydroxy-phenoxy]-acetic acid]: 84%; `O=Cc1ccc(OCC(=O)O)c(Cc2ccc3ccccc3c2Br)c1O` [Example 6, [2-(1-bromo-naphthalen-2-ylmethyl)-4-formyl-3-hydroxy-phenoxy]-acetic acid]: 78%.
On the same count and under the same terms, next, `COc1c(C=O)ccc(OCC(=O)O)c1Cc1ccc2c(Cl)cccc2c1` [Example 7, [2-(5-chloro-naphthalen-2-ylmethyl)-4-formyl-3-methoxy-phenoxy]-acetic acid]: 83%; `COc1cc(OCC(=O)O)c(Cc2ccc3c(Cl)cccc3c2)c(O)c1C=O` [Example 8, [2-(5-chloro-naphthalen-2-ylmethyl)-4-formyl-3-hydroxy-5-methoxy-phenoxy]-acetic acid]: 81%.
Still for that read-out and setting: to `Cc1cc(OCC(=O)O)c(Cc2ccc3c(Cl)cccc3c2)c(O)c1C=O` [Example 9, [2-(5-chloro-naphthalen-2-ylmethyl)-4-formyl-3-hydroxy-5-methyl-phenoxy]-acetic acid] belongs 89%.
In the case of `O=Cc1cc(Cl)c(OCC(=O)O)c(Cc2ccc3c(Cl)cccc3c2)c1O` [Example 10, [6-chloro-2-(5-chloro-naphthalen-2-ylmethyl)-4-formyl-3-hydroxy-phenoxy]-acetic acid], testing at 0.1 µM in assay [2] gave an inhibition of 36%.
Take `CC1(COc2ccc(CC3SC(=O)NC3=O)cc2)CCCCC1` (stereo not drawn) [ciglitazone, reference compound]: in assay [3] (positive control, 100 mg/kg/day × 4 days, average), the “decrease in plasma glucose levels (average)” value is recorded as 26%. The “decrease in plasma glucose levels” value in assay [3] (positive control, 100 mg/kg/day × 4 days, range) fell in the range of 18 to 34%.
